# Experiments:
# Type in all cases: physicochemical
# [1] = Aqueous Solution Turbidity (AST) / water solubility and clarity of 5% and 10% aqueous solutions
# Procedure: (§1) Measurement of Turbidity via Nephelometric Turbidimetry. Clarity of solutions and formulations is reported as Aqueous Solution Turbidity (AST) or Formulation Turbidity (FT) measured in nephelometric turbidity units (NTU). Turbidity values were determined on an HF Scientific Micro 100 Benchtop Turbidity Meter operating at room temperature (23° C.±2° C.). Aqueous Solution Turbidity is an inherent property of a PGE composition when measured as specified at 5% in deionized water at 23±2° C.
# [2] = Critical Micelle Concentration (CMC) via equilibrium surface tensiometry; details: pure water, 22° C.
# Procedure: Determination of Critical Micelle Concentration (CMC) via Equilibrium Surface Tensiometry. […] Dipping distance for the plate was set to 3.00 mm prior to return to the surface within +/−0.01 mm for measurement of surface tension force. All tests were performed at 22° C.±0.2° C. For each surfactant a 1.00% stock solution in pure water was prepared and incrementally dosed into initially pure water to augment surfactant concentration while measuring surface tension after each concentration augmentation. Each surfactant was tested in duplicate runs at concentrations ranging from 0.001% to 0.500% of surfactant. The CMC value is taken at the intersection between the regression straight line of the linearly dependent region and the straight line passing through the plateau when surface tension is plotted as a function of concentration.
# [3] = STERC via bubble pressure tensiometry; details: at the CMC
# Procedure: Dynamic surface tension reduction, i.e. surface tension reduction as a function of time, is measured by bubble pressure tensiometry using the maximum bubble pressure (MBP) method. When dynamic surface tension data obtained from MBP experiments is plotted as a function of surface age, fitting of the data to a first-order decay function as in Formula (III) enables one to obtain the Surface Tension Equilibration Rate Constant (STERC) for a given surfactant at a specific concentration.
# Surface Tension Equilibration Rate Constant (STERC) is calculated according to Formula (III): γt=γeq+(γi−γeq)^−t/K (III) where: • γt=surface tension at time=t, in mN/m; • γeq=equilibrium surface tension, in mN/m; • γi=initial surface tension, in mN/m; • t=time, in ms; and • K=surface tension equilibration rate constant (STERC) in ms^−1.
# Determination of STERC via Bubble Pressure Tensiometry. Dynamic surface tensions were determined on a Kruss BP100 Bubble Pressure Tensiometer, using a 0.256 mm OD silane-treated glass capillary submerged to a depth of 1.00 cm for testing and buoyancy compensated. […] The STERC as reported herein is determined at the CMC and is obtained by plotting the dynamic surface tension as a function of surface age and fitting the data to the equation below to obtain a first-order rate constant for reduction of surface tension from the initial value to the equilibrium value. […]
# [4] = Solubilization of 1% Spectrastat G2 Natural by solubilizer, Formulation Turbidity (FT); details: 5% solubilizer, aqueous
# Procedure: as §1
substance,measurement,setting,value
Heptyl Glucoside [CE4],AST @ 5%,"[1]; 5% in deionized water, 23±2° C.",0.65 NTU
same,AST @ 10%,[1]; 10% in deionized water,1.2 NTU
same,CMC,[2],0.0672 wt %
same,STERC at CMC,[3]; 22° C.,3226 ms^−1
same,STERC,[3]; unit printed s^−1,3226 s⁻¹
same,FT,[4],4.21 NTU

# From US12527732B2, “Biobased polyglyceryl esters and compositions comprising the same” (Inolex Investment Corporation, priority 2021, dated 2026)
